Reference: PubChem BioAssay AID248 (DTP/NCI, 2004)
Several values for one entry are separate records, joined by “and”; a condition that tells them apart may be missing. Equal entries are not always repeated. Toxic doses and inconclusive results are not listed. No stated cut-off is given here; in the data, active means T/C of 150% or more; inactive means T/C below 125%.

System: L1210 leukemia ip in BDF1 mice, survival T/C
Test: NCI In Vivo Anticancer Drug Screen. Data for tumor model L1210 Leukemia (intraperitoneal) in B6D2F1 (BDF1) mice
Conditions: endpoint: mean survival time, higher = longer survival
Method in brief: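 Tumor was transplanted into mice, which were then dosed with test compound or vehicle alone. Survival was recorded for each group, and the treated figure was expressed relative to the control figure.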

[1] = dose: 100.0 mg/kg/injection, schedule: Q01DX001 (ip), vehicle: Klucel (hydroxypropylcellulose) (HPC)
[2] = dose: 200.0 mg/kg/injection, schedule: Q01DX001 (ip), vehicle: Klucel (hydroxypropylcellulose) (HPC)
[3] = dose: 400.0 mg/kg/injection, schedule: Q01DX001 (ip), vehicle: Klucel (hydroxypropylcellulose) (HPC)
[4] = dose: 100.0 mg/kg/injection, schedule: Q04DX003 (ip), vehicle: saline with Tween-80
[5] = dose: 400.0 mg/kg/injection, schedule: Q04DX003 (ip), vehicle: saline with Tween-80
[6] = dose: 100.0 mg/kg/injection, schedule: Q04DX003 (ip), vehicle: saline
[7] = dose: 200.0 mg/kg/injection, schedule: Q04DX003 (ip), vehicle: saline
[8] = dose: 400.0 mg/kg/injection, schedule: Q04DX003 (ip), vehicle: saline

Measured: T/C

CCCCNC1=C(NC(=O)C(Cl)Cl)C(=O)c2ccccc2C1=O
inactive: dose: 2.5 mg/kg/injection, schedule: Q01DX009 (ip), vehicle: saline with Tween-80 103 % of control | dose: 5.0 mg/kg/injection, schedule: Q01DX009 (ip), vehicle: saline with Tween-80 101 % of control | dose: 5.0 mg/kg/injection, schedule: Q04DX003 (ip), vehicle: saline with Tween-80 100 % of control | dose: 10.0 mg/kg/injection, schedule: Q01DX009 (ip), vehicle: saline with Tween-80 98 % of control | dose: 10.0 mg/kg/injection, schedule: Q04DX003 (ip), vehicle: saline with Tween-80 97 % of control

CC(c1c[nH]c2ccccc12)N1CCCCC1 (stereo not given)
inactive: dose: 12.5 mg/kg/injection, schedule: Q01DX009 (ip), vehicle: saline 115 % of control | dose: 25.0 mg/kg/injection, schedule: Q01DX009 (ip), vehicle: saline 107 % of control | dose: 25.0 mg/kg/injection, schedule: Q04DX003 (ip), vehicle: acetone 103 % of control | dose: 50.0 mg/kg/injection, schedule: Q01DX009 (ip), vehicle: saline 109 % of control | dose: 50.0 mg/kg/injection, schedule: Q04DX003 (ip), vehicle: acetone 95 % of control | dose: 100.0 mg/kg/injection, schedule: Q01DX001 (ip), vehicle: carboxymethylcellulose (CMC) 96 % of control

Cc1ccc(NNS(=O)(=O)c2cccc([N+](=O)[O-])c2)c(Br)c1
inactive: [1] 96 % of control | dose: 100.0 mg/kg/injection, schedule: Q04DX003 (ip), vehicle: Klucel (hydroxypropylcellulose) (HPC) 102 % of control | [2] 94 % of control | dose: 200.0 mg/kg/injection, schedule: Q04DX003 (ip), vehicle: Klucel (hydroxypropylcellulose) (HPC) 96 % of control | [3] 100 % of control | dose: 400.0 mg/kg/injection, schedule: Q04DX003 (ip), vehicle: Klucel (hydroxypropylcellulose) (HPC) 96 % of control

C/C(=C\C(C)C)C1(C)C(=O)NC(=O)NC1=O
inactive: dose: 75.0 mg/kg/injection, schedule: Q01DX001 (ip), vehicle: other 96 % of control | dose: 150.0 mg/kg/injection, schedule: Q01DX001 (ip), vehicle: other 109 % of control | dose: 300.0 mg/kg/injection, schedule: Q01DX001 (ip), vehicle: other 105 % of control

O=[N+]([O-])c1ccc(/C=N/N(Cc2ccccc2)c2ccccc2)s1
inactive: [4] 87 % of control | [5] 89 % of control

O=S(=O)(C/C(=N\O)c1ccccc1)C/C(=N/O)c1ccccc1
inactive: [6] 104 % of control | [7] 98 % of control | [8] 100 % of control

CC(=O)OC1CCP(C)(=O)C1 (stereo not given)
inactive: [6] 98 % of control | [7] 96 % of control | [8] 93 % of control

O=C1NC(=O)C2=C1SCCS2
inactive: dose: 100.0 mg/kg/injection, schedule: Q04DX002 (ip), vehicle: saline with Tween-80 91 % of control | dose: 200.0 mg/kg/injection, schedule: Q04DX002 (ip), vehicle: saline with Tween-80 109 % of control | dose: 400.0 mg/kg/injection, schedule: Q04DX002 (ip), vehicle: saline with Tween-80 109 % of control

C1CCC2[N-]CC3CCCCC3[N-]CC3CCCCC3[N-]CC3CCCCC3[N-]CC2C1.[Cu] (stereo not given)
inactive: dose: 20.0 mg/kg/injection, schedule: Q01DX001 (ip), vehicle: Klucel (hydroxypropylcellulose) (HPC) 110 % of control | dose: 40.0 mg/kg/injection, schedule: Q01DX001 (ip), vehicle: Klucel (hydroxypropylcellulose) (HPC) 117 % of control | [1] 116 % of control

Cc1c(N)cccc1N
inactive: dose: 12.5 mg/kg/injection, schedule: Q01DX009 (ip), vehicle: saline with Tween-80 119 % of control | dose: 12.5 mg/kg/injection, schedule: Q04DX003 (ip), vehicle: saline with Tween-80 95 % of control | dose: 25.0 mg/kg/injection, schedule: Q01DX009 (ip), vehicle: saline with Tween-80 108 % of control | dose: 25.0 mg/kg/injection, schedule: Q04DX003 (ip), vehicle: saline with Tween-80 117 % of control | dose: 50.0 mg/kg/injection, schedule: Q04DX003 (ip), vehicle: saline with Tween-80 117 % of control

CNC(=O)Oc1cccc(NC(=O)OCC(C)(C)C)c1
inactive: [4] 96 % of control | dose: 200.0 mg/kg/injection, schedule: Q04DX003 (ip), vehicle: saline with Tween-80 102 % of control | [5] 97 % of control

Nc1nc(N)c2[nH]c(CCNc3ccc(C(=O)O)cc3)nc2n1
inactive: dose: 6.25 mg/kg/injection, schedule: Q01DX001 (ip), vehicle: saline with Tween-80 96 % of control | dose: 12.5 mg/kg/injection, schedule: Q01DX001 (ip), vehicle: saline with Tween-80 92 % of control | dose: 25.0 mg/kg/injection, schedule: Q01DX001 (ip), vehicle: saline with Tween-80 94 % of control and 101 % of control | dose: 50.0 mg/kg/injection, schedule: Q01DX001 (ip), vehicle: saline with Tween-80 98 % of control | dose: 100.0 mg/kg/injection, schedule: Q01DX001 (ip), vehicle: saline with Tween-80 102 % of control

CCCCCc1c(CCC)[nH]c(=O)[nH]c1=O
inactive: [1] 105 % of control | [2] 106 % of control | [3] 90 % of control
